Experimental data published in patent US4360663A, “Steroid hormone-antitumor derivatives” (Kureha Kagaku Kogyo Kabushiki Kaisha, priority 1978, dated 1982).

What was measured:
[1] = test system: estrogen sensitive cells (uterus of rabbit); assay: Binding function to estrogen sensitive cells (3H-estradiol replacement, uterus of rabbit); details: 10 nM sample; smaller value = higher binding; 54-56% at 0 nM
[2] = test system: estrogen sensitive cells (uterus of rabbit); assay: as above; details: 100 nM sample; smaller value = higher binding; 54-56% at 0 nM
Description: Binding function of the active ingredients to estrogen sensitive cells.
The binding function of the active ingredient to tumor cells was tested by the method described in Biochemical Experiment text Hormone (I) (Nippon Seikagaku) (Tokyo Kagakudojin page 217-252, April 25, 1977).
Estradiol labelled by tritium (^3 H) was incubated with uterus of rabbit to bind it and then, the sample was added to the system to measure the amount of free ^3 H-estradiol which was replaced by the added estradiol. The results are shown as the binding ^3 H-estradiol(%) in the cases adding […] of the sample.

[3] = Acute toxicity (LD50), ICR-JCL female mice, Litchfield-Wilcoxon graph method; details: mouse, in vivo, one dose, in olive oil, after 7 days
Description: In the measurement of LD50, eight ICR-JCL female mice (5 week age) were used as one group to breed in a transparent polycage, and each drug was dissolved in olive oil and administrated by routes of intraperitoneal injection (i.p.), oral administration (p.o.) and subcutaneous injection (s.c.), to the mice at one dose and then, their value of LD50 by Litchfield-Wilcoxon graph method is obtained after 7 days.
(§1) The tests (1), (2), (3) for various active ingredients were carried out.

[4] = test system: human breast cancer cells having steroid hormone receptor; assay: Antitumor test (in vivo), human breast cancer cells implanted in BALB/C-nu/nu mice; details: tumors excised day 25
Description: Pieces of human breast cancer cells having steroid hormone receptor was subcutaneously implanted under the arm of mice (BALB/C-nu/nu) (5 week age) to form solid tumors. After the solid tumors were established, each dispersion or solution of the active ingredient in olive oil was administered by oral dose or intraperitoneal injection each other day for 10 times or every days for 20 times. Twenty five days from the initial administration, the tumors were excised. Efficiency of inhibition of tumor proliferation was measured from (A) each average weight of excised tumors for 10 mice (the active ingredient was administrated) and (B) each average weight of excised tumors for 10 control mice. [formula]
as §1

Row | Compound | Binding 3H-estradiol [1] | Binding 3H-estradiol [2] | LD50 at 168 h ([3]; ip) | LD50 at 168 h ([3]; po) | other results
1 | COc1cccc2c1C(=O)c1c(O)c3c(c(O)c1C2=O)C[C@@](O)(C(C)=O)C[C@@H]3O[C@H]1C[C@H](N)[C@H](O)[C@H](C)O1 [compound 4] | 56% | 56% | – | – | –
2 | C[C@]12CC[C@@H]3c4ccc(O)cc4CC[C@H]3[C@@H]1CC[C@@H]2O [compound 1] | 36% | 16% | – | – | –
3 | O=c1[nH]cc(F)c(=O)[nH]1 [compound 8] | 55% | 53% | – | – | –
4 | 3-hydroxy-1,3,5(10)-estratriene-17β-[methyl-2-{N'-(2-chloroethyl)-N'-nitrosoureido}-2-deoxy-α-D-glucuronoyloxy]acetate [Test No. 2 (Table 17)] | 37% | 17% | – | – | –
5 | CN(N=O)C(=O)N[C@H]1C(O)O[C@H](C(=O)OCC(=O)O[C@H]2CC[C@H]3[C@@H]4CCc5cc(O)ccc5[C@H]4CC[C@]23C)[C@@H](O)[C@@H]1O (stereo partly drawn) [Test No. 6 (Table 17), 3-hydroxy-1,3,5(10)-estratriene-17β-[2-(N'-methyl-N'-nitrosoureido)-2-deoxy-D-glucuronoyloxy]acetate] | 28% | 16% | > 660 mg/kg | > 1000 mg/kg | Inhibitory effect of tumor, efficiency ([4]; i.p., 5 mg/kg): 92%; Inhibitory effect of tumor, efficiency ([4]; i.p., 10 mg/kg): 97%; Inhibitory effect of tumor, efficiency ([4]; p.o., 10 mg/kg): 77%; Inhibitory effect of tumor, efficiency ([4]; p.o., 40 mg/kg): 84%
6 | CO[C@H]1O[C@H](C(=O)OCC(=O)O[C@H]2CC[C@H]3[C@@H]4CCc5cc(O)ccc5[C@H]4CC[C@]23C)[C@@H](O)[C@H](O)[C@H]1NC(=O)N(CCCl)N=O [compound 2] | 45% | 30% | > 180 mg/kg | > 1000 mg/kg | Inhibitory effect of tumor, efficiency ([4]; i.p., 1 mg/kg): 90%; Inhibitory effect of tumor, efficiency ([4]; i.p., 3 mg/kg): 92%; Inhibitory effect of tumor, efficiency ([4]; p.o., 10 mg/kg): 79%; Inhibitory effect of tumor, efficiency ([4]; p.o., 40 mg/kg): 82%
7 | C[C@]12CC[C@@H]3c4ccc(O)cc4CC[C@H]3[C@@H]1CC[C@@H]2OC(=O)Cn1cc(F)c(=O)[nH]c1=O [Test No. 7 (Table 17), 3-hydroxy-1,3,5(10)-estratriene-17β-[5-fluoro-2,4-dioxo-pyrimidin-1-yl]acetate] | 36% | 25% | > 605 mg/kg | > 2000 mg/kg | Inhibitory effect of tumor, efficiency ([4]; i.p., 10 mg/kg): 90%; Inhibitory effect of tumor, efficiency ([4]; i.p., 20 mg/kg): 100%
8 | CN(Cc1cnc2nc(N)nc(N)c2n1)c1ccc(C(=O)N[C@@H](CCC(=O)OCC(=O)O[C@H]2CC[C@H]3[C@@H]4CCc5cc(O)ccc5[C@H]4CC[C@]23C)C(=O)OCC(=O)O[C@H]2CC[C@H]3[C@@H]4CCc5cc(O)ccc5[C@H]4CC[C@]23C)cc1 [Test No. 9 (Table 17), bis 3-hydroxy-1,3,5(10)-estratriene-17β-oxycarbonylmethyl-4-amino-N^10-methylpteroylglutamate] | 35% | 19% | > 235 mg/kg | > 3000 mg/kg | Inhibitory effect of tumor, efficiency ([4]; i.p., 5 mg/kg): 98%; Inhibitory effect of tumor, efficiency ([4]; p.o., 10 mg/kg): 80%; Inhibitory effect of tumor, efficiency ([4]; p.o., 50 mg/kg): 93%
9 | N[C@@H](Cc1ccc(N(CCCl)CCCl)cc1)C(=O)O [compound 21] | – | – | 6.2 mg/kg | 15.9 mg/kg | Inhibitory effect of tumor, efficiency ([4]; i.p., 0.1 mg/kg): 51%; Inhibitory effect of tumor, efficiency ([4]; i.p., 0.5 mg/kg): 57%; Inhibitory effect of tumor, efficiency ([4]; p.o., 1 mg/kg): 61%; Inhibitory effect of tumor, efficiency ([4]; p.o., 3 mg/kg): 72%
10 | COc1cccc2c1C(=O)c1c(O)c3c(c(O)c1C2=O)C[C@@](O)(C(C)=O)C[C@@H]3O[C@H]1C[C@H](N)[C@H](O)[C@H](C)O1 [compound 18] | – | – | 5 mg/kg | 20 mg/kg | Inhibitory effect of tumor, efficiency ([4]; i.p., 0.5 mg/kg): 47%; Inhibitory effect of tumor, efficiency ([4]; i.p., 1 mg/kg): 78%; Inhibitory effect of tumor, efficiency ([4]; p.o., 1 mg/kg): 59%
11 | CO[C@H]1O[C@H](CO)[C@@H](O)[C@H](O)[C@H]1NC(=O)N(CCCl)N=O [compound 3] | 55% | 55% | – | – | –
